Assay results taken from patent US12179400B2, “Multiple-matrix monolithic moulded part for the diffusion of active ingredients and method for obtaining same” (AB7 Innovation S.A.S.U., priority 2017, dated 2024).

Legend:
Type in all cases: physicochemical
[1] = GPC assay of active ingredients (repellent tracers) in EVA collars at T0 after injection and after 7 days of stability at 50° C.; conditions: for cumulative loss: collar (C1), T0 loss plus loss after 7 days at 50° C.; for Active ingredient loss (%): EVA
Procedure: In a 1 L beaker, 200 g of vitamin F, 160 g of Mentha pulegium essential oil, 31.2 g of eucalyptus essential oil, 8 g of lemongrass essential oil and 0.8 g of geraniol are mixed. The mixture is stirred lightly until a homogeneous liquid mixture is obtained.
3519.2 g of EVA are introduced into a cylindrical mixer preheated to 70° C. Then, the above homogeneous liquid mixture is slowly introduced. The mixture is left to be stirred gently until dry granules are obtained. 80 g of pistachio green dye are added and then mixed for 5 minutes. A compound is obtained consisting of EVA polymers loaded with 11.1% by weight of all the active ingredients combined, or 5.5% by weight of vitamin F and 5.6% by weight of repellents.
The above compound is injected into a collar 60 cm long by 1 cm wide and weighing 25 g.
The collars (C1) thus obtained were analyzed by GPC assay of the active ingredients contained in the matrix at time zero (T0) after injection, then after 7 days of stability at 50° C. in watertight-sealed packaging.
In parallel, by proceeding according to the same protocol, vitamin F was replaced by coconut oil, in the same proportions, then the corresponding collar compound (C2) was injected. The analyses by GPC assay of the collars (C2) gave the results recorded in Table 2. […]

[2] = In vitro release profile in plant oil from antiparasitic TPU (EPAMOULD) collar; conditions: for release profile: bi-injected collar: one matrix 8% permethrin in 5% SANTICIZER 141, other matrix 4% deltamethrin in 22% SANTICIZER 141; for amount released after 15 days: single EPAMOULD matrix with 8% permethrin and 4% deltamethrin, both in 22% SANTICIZER 141
Procedure: 8% permethrin is solubilized in 22% of SANTICIZER 141® Then, 4% deltamethrin is added, before adding the homogeneous mixture in a single EPAMOULD® matrix.
FIG. 3: In vitro release profile in the plant oil from the pest control collar containing 8% permethrin and 4% deltamethrin, both solubilized in 22% SANTICIZER 141®
Therefore, the same amount (8%) of permethrin was solubilized in 5% SANTICIZER® 141 prior to incorporation into a EPAMOULD® matrix as above, in order to obtain a permethrin compound. In parallel, the same quantity of deltamethrin (4%) solubilized in 22% of SANTICIZER® 141 was mixed, prior to incorporation into a EPAMOULD® matrix, in order to obtain a deltamethrin compound.
The two compounds obtained are injected simultaneously in a collar using the bi-injection press as described in Example 1.
FIG. 4: In vitro release profile in plant oil of the antiparasitic collar obtained by bi-injection including a matrix containing 8% of permethrin solubilized in 5% of SANTICIZER 141® and the other matrix containing 4% of deltamethrin dissolved in 22% of SANTICIZER 141®.

[3] = Release profile at room temperature of active ingredient incorporated at 10% into polymer matrix bracelets; conditions: for release profile: 10% loading
Procedure: Studies carried out by the inventors have made it possible to prepare the release profiles of limonene as a function of the polymers used, namely PEBA, EVA and the bio-based polyethylene (PE) copolymer. Compounds loaded with 10% limonene were injected in a bracelet.
FIG. 1: release profile at room temperature of limonene incorporated at 10% into different polymer matrices.
10% essential oil of Eucalyptus radiata has been incorporated into an EVA polymer matrix.
FIG. 2: release profile at room temperature of Eucalyptus radiata essential oil incorporated at 10% into an EVA matrix

[4] = collars (C1), 5.5% Vitamin F and 5.6% repellents, at T0 after injection
[5] = collars (C1), 5.5% Vitamin F and 5.6% repellents, at T = 7 days at 50° C., watertight-sealed packaging
[6] = collars (C2), 5.5% coconut and 5.6% repellents, at T0 after injection
[7] = collars (C2), 5.5% coconut and 5.6% repellents, at T = 7 days at 50° C.
[8] = PEBA bracelet loaded with 10% limonene

Structure (SMILES)	cumulative loss [1]	Active ingredient loss (%) [1, 4]	Active ingredient loss (%) [1, 5]	Active ingredient loss (%) [1, 6]	Active ingredient loss (%) [1, 7]	further results
CC12CCC(CC1)C(C)(C)O2 [Cineole]	16%	12%	4%	0%	0%	Active ingredient loss (%) ([1]; collars (C1), 5.5% Vitamin F and 5.6% repellents, at T0 after injection, listed as cineole): 12%; Active ingredient loss (%) ([1]; collars (C1), 5.5% Vitamin F and 5.6% repellents, at T = 7 days at 50° C., watertight-sealed packaging, listed as cineole): 4%
CC(C)=C1CC[C@@H](C)CC1=O [Pulegone]		11%	10%	0%	0%	
CC1(C)[C@H](C(=O)O[C@H](C#N)c2cccc(Oc3ccccc3)c2)[C@@H]1C=C(Br)Br [deltamethrin]						release profile [2]: substantially similar release profile; amount released after 15 days [2]: 18%
C=C(C)[C@H]1CC=C(C)CC1 [limonene, Limonene]						release profile ([3]; EVA matrix): releases gradually; amount released after 2 days [3, 8]: 70%; time until bracelet empty [3, 8]: 6 days; release profile ([3]; PEBA bracelet): very quickly and in a significant quantity; release profile ([3]; bio-based polyethylene (PE) copolymer bracelet): retains; remaining amount after 10 days ([3]; incorporated at 10% into EVA matrix): 42%
CC1(C)C(C=C(Cl)Cl)C1C(=O)OCc1cccc(Oc2ccccc2)c1 (centres unmarked) [permethrin]						release profile [2]: substantially similar release profile; amount released after 15 days [2]: 52%

Further lines, with some results ahead:

cumulative loss [1]	Active ingredient loss (%) [1, 4]	Active ingredient loss (%) [1, 5]	Active ingredient loss (%) [1, 6]	Active ingredient loss (%) [1, 7]	Structure (SMILES)	further results
50%	12%	38%	0%	3%	CC(C)=CCCC(C)CC=O (centres unmarked) [Citronellal]	Active ingredient loss (%) ([1]; collars (C1), 5.5% Vitamin F and 5.6% repellents, at T0 after injection, listed as citronellal): 12%; Active ingredient loss (%) ([1]; collars (C1), 5.5% Vitamin F and 5.6% repellents, at T = 7 days at 50° C., watertight-sealed packaging, listed as citronellal): 38%; Active ingredient loss (%) ([1]; collars (C2), 5.5% coconut and 5.6% repellents, at T = 7 days at 50° C., listed as citronellal): 3%
27%	7%	20%	3%	0%	CC(C)=CCCC(C)CCO (centres unmarked) [Citronellol]	Active ingredient loss (%) ([1]; collars (C1), 5.5% Vitamin F and 5.6% repellents, at T0 after injection, listed as citronellol): 7%; Active ingredient loss (%) ([1]; collars (C1), 5.5% Vitamin F and 5.6% repellents, at T = 7 days at 50° C., watertight-sealed packaging, listed as citronellol): 20%; Active ingredient loss (%) ([1]; collars (C2), 5.5% coconut and 5.6% repellents, at T0 after injection, listed as citronellol): 3%
36%	6%	30%	0%	0%	CC(C)=CCC/C(C)=C/CO [Geraniol, geraniol]	Active ingredient loss (%) ([1]; collars (C1), 5.5% Vitamin F and 5.6% repellents, at T0 after injection, listed as geraniol): 6%; Active ingredient loss (%) ([1]; collars (C1), 5.5% Vitamin F and 5.6% repellents, at T = 7 days at 50° C., watertight-sealed packaging, listed as geraniol): 30%
